“Also recorded” adds a separate entry of the source.

The results in this text go back to US20240398736A1, “Eyedrops for Treating Scleral Thinning and Screening Method for Therapeutic Agent of Scleral Thinning” (Tsubota Laboratory, Inc., priority 2020, published 2024).

Data set [1] concerns myopia-induced mouse. Nature of the data set: Eyedrop administration of UPR inhibitors during myopia induction in mouse: axial elongation and refraction (Test Example 2). The format is in vivo. The note with it: eyedrop once a day for 10 days during myopia induction; 100 μM each (STF 60 μM); -30 D lens eye. Here is the method: Specifically, a myopia-induced mouse is produced as follows.
During the myopia induction, 60 μM STF080312 (STF), 100 μM 4μ8C (4μ8C), 100 μM GSK2656157 (GSK), 100 μM GSK2606414 (GSK2606414), 100 μM Nelfinavir Mesylate hydrate (NFV), or 100μM Ceapin-A7 (Ceapin) was eye-dropped to both eyes once a day every day in the evening for 10 days.
It is said that increase of expression of URP gene pathway is a cause of pathologic axial elongation and scleral thinning in high myopia (Patent Literature 1). Therefore, in this Test Example 2, it was evaluated, in the sclera of a myopia-induced mouse in which scleral thinning had been caused, how the phenotype of axial elongation was affected by a known URP gene inhibitor. It is noted that GSK2656157 (GSK) and GSK2606414 were used as the PERK inhibitor, Nelfinavir Mesylate hydrate (NFV) and Ceapin-A7 were used as the ATF6 inhibitor, and STF080312 (STF) and 4μ8C were used as the IRE1 inhibitor (FIG. 4).
In accordance with the test method described above, the axial elongation caused in using each of the various gene inhibitors in a myopia-induced mouse was evaluated (FIG. 4).
FIGS. 5a and 5b illustrate axial elongation (a) and refraction change (b) obtained after eyedrop administration of 60 μM STF, 100 μM GSK, or 100 μM NFV once a day for 10 days during the myopia induction period of the mouse. Besides, FIGS. 5c and 5d illustrate axial elongation (a) and refraction change (b) obtained after similarly eyedrop administration of a combination of these inhibitors (STF+GSK:S+G, GSK+NFV:G+N, NFV+STF:N+S, or STF+GSK+NTF:S+G+N). Besides, FIG. 6 illustrates axial elongation (a) and refraction change (b) obtained after similarly eyedrop administration of 100 μM GSK2606414, Ceapin-A7, or 4μ8C.

Data set [2] relates to myopia-induced mouse. Nature of the data set: Intraperitoneal injection of 4-PBA or TUDCA during myopia induction in mouse: axial elongation and refraction (Test Example 3). On the procedure:
Specifically, a myopia-induced mouse is produced as follows. It is noted that myopia induction, and measurement of an axial length and refraction were performed by methods similar to those described in Non Patent Literatures 6 and 7. First, a male C57BL6J mouse was put in a standard transparent cage under a 12/12 h light/dark cycle in a temperature controlled clean room. The animal was allowed to free access to standard feed and autoclaved tap water. A 3-week-old mouse immediately after weaning was anesthetized with a mixed anesthetic of three anesthetics, that is, Domitor (Nippon Zenyaku Kogyo Co., Ltd.), Butorphanol (Meiji Seika Pharma Co., Ltd.), and Midazolam (Sandoz K. K.), and the skull was exposed with scissors. As illustrated in FIG. 1(b), a post was provided to stand on the skull, and fixed with dental cements (Super-Bond, Sun Medical Company, Ltd.). The post was provided with a screw thread so that an adjustor described below could be fixed thereon with a nut.
For inducing myopia, a minus lens having a power of −30 diopters (D) (Rainbow Contact, RAINBOW OPTICAL LABORATORY CO., LTD.) was worn on the right eye (myopia-induced eye), and a lens having a power of 0 D or only a frame was worn as a control on the left eye (control eye). […] The protector used here was attached to be integral with the frame portion, but the protector needs not be integral with the lens as long as the lens is not damaged by the behavior of the mouse.
Sodium phenylbutyrate (Cayman Chemical, MI, USA) and tauroursodeoxycholic acid (Sigma Aldrich, Tokyo, Japan) were dissolved in PBS. STF080310 (Selleck Biotech, Tokyo, Japan) or 4μ8C (Selleck Biotech) of an IRE1 inhibitor, GSK2656157 (Selleck Biotech) or GSK2606414 (Selleck Biotech) of a PERK inhibitor, and Nelfinavir Mesylate hydrate (Tokyo Chemical Industry Co., Ltd.) or Ceapin-A7 (Sigma Aldrich) of an ATF6 inhibitor were dissolved in DMSO, and the resultant was diluted to 1:1000 with PBS to be used in an eyedrop test.
A solution of sodium phenylbutyrate in PBS (4-PBA; 200 mg/kg) or tauroursodeoxycholic acid (TUDCA; 100 mg/kg) was intraperitoneally injected (i.p.) every day during the myopia induction period.

The mark [3] stands for this setting: TUDCA 100 mg/kg intraperitoneal injection during myopia induction.

Take `O=C(Nc1cnn(Cc2ccc(C(F)(F)F)cc2C(F)(F)F)c1)c1cc(-c2ccco2)on1` [Ceapin-A7]: in data set [1], the “axial elongation of myopia-induced eye” value was “neither axial elongation nor myopic refraction was inhibited” and the “myopic refraction of myopia-induced eye” value is “neither axial elongation nor myopic refraction was inhibited”.

On to `C[C@H](CCC(=O)NCCS(=O)(=O)O)[C@H]1CC[C@H]2[C@@H]3[C@@H](O)C[C@@H]4C[C@H](O)CC[C@]4(C)[C@H]3CC[C@]12C` [TUDCA, tauroursodeoxycholic acid], for which, in data set [2] (setting [3]), the “axial elongation (pathologic, myopia-induced eye)” value is reported as “pathologic axial elongation alone was inhibited; also recorded: the axial elongation is inhibited” and the myopic refraction result is reported as “the myopic refraction is inhibited”. In addition, the physiological axial elongation entry in data set [2] (mouse, in vivo) was “physiological axial elongation was not inhibited”.

In the case of `Cc1cc(=O)oc2c(C=O)c(O)ccc12` [4μ8C], in data set [1], the “axial elongation of myopia-induced eye” value is listed as “neither axial elongation nor myopic refraction was inhibited” and the “myopic refraction of myopia-induced eye” value is “neither axial elongation nor myopic refraction was inhibited”.

With `Cn1cc(-c2ccc3c(c2)CCN3C(=O)Cc2cccc(C(F)(F)F)c2)c2c(N)ncnc21` [GSK2606414], in data set [1], the “axial elongation of myopia-induced eye” value is reported as “neither axial elongation nor myopic refraction was inhibited” and the “myopic refraction of myopia-induced eye” value is on record as “neither axial elongation nor myopic refraction was inhibited”.
